Assay results published in ChEMBL document CHEMBL1201862, “PubChem BioAssay data set” (2004).
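Step 1: Grow cells in 96-well plates. Step 2: Expose to compound for 48 hours at 5 concentrations. Step 3: Interpolate endpoints linearly; if unreached, use highest concentration. GI50 = concentration required for 50% inhibition of growth.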 The source made the active and inactive calls. No stated cut-off is given here; in the data, active = GI50 up to about 1.1 µM and inactive = higher.

Columns and labels:
Test in all cases: NCI-60 cell line screen, 48 h
A549 = test system: A549
BT-549 = test system: BT-549
CAKI-1 = test system: CAKI-1
CCRF-CEM = test system: CCRF-CEM
HCT-116 = test system: HCT-116
HL-60 = test system: HL-60
HOP-62 = test system: HOP-62
K562 = test system: K562
MCF7 = test system: MCF7
NCI-H460 = test system: NCI-H460
NCI-H522 = test system: NCI-H522
NCI/ADR-RES = test system: NCI/ADR-RES
OVCAR-5 = test system: OVCAR-5
PC-3 = test system: PC-3
SK-OV-3 = test system: SK-OV-3
SNB-75 = test system: SNB-75
SR = test system: SR
SW-620 = test system: SW-620
T47D = test system: T47D
U-251 = test system: U-251

Measured: GI50

CC(C)(C)OC(=O)N1CCC2(CC1)C(=O)NCN2c1ccccc1
inactive: A549 > 100 µM | BT-549 > 100 µM | CAKI-1 > 100 µM | CCRF-CEM > 100 µM | HCT-116 > 100 µM | HL-60 92.7 µM | HOP-62 > 100 µM | K562 77.8 µM | MCF7 > 100 µM | NCI-H460 > 100 µM | NCI-H522 > 100 µM | NCI/ADR-RES > 100 µM | OVCAR-5 > 100 µM | PC-3 > 100 µM | SK-OV-3 > 100 µM | SNB-75 > 100 µM | SR > 100 µM | SW-620 > 100 µM | T47D > 100 µM | U-251 > 100 µM
